Test results from US20110269825A1, “Modified Thromboxane A2 Receptor Promoter Sequence” (priority 2008, published 2011).
Where “and” joins values, the source holds several entries; their conditions need not be identical. Equal values may be shown once.

Experiments:
Format in all cases: cell-based, human
[1] = tested on: Prm1-directed luciferase expression; test: Effect of PMA, PD98059 or Vitamin D3 on Prm1-directed luciferase expression in HEL cells
Protocol: HEL and EA.hy 926 cells were co-transfected with the various pGL3Basic-recombinant plasmids (2 mg), encoding firefly luciferase, along with pRL-TK (200 ng), encoding renilla luciferase, using DMRIE-C® transfection reagent. HEK293, WI-38, and 1° hAoSMCs were co-transfected with the pGL3Basic-recombinant plasmids (2 mg), along with pRL-TK (200 ng), using Effectene transfection reagent. In all cases, cells co-transfected with pRL-TK (200 ng) in the presence of either the pGL3Control vector (firefly luciferase gene under the control of the SV40 promoter; 2 mg) or the promoter-less pGL3Basic empty vector (2 mg), which served as positive and negative controls, respectively. […] Relative firefly to renilla luciferase activity (arbitrary units) was calculated as a ratio and was expressed in relative luciferase units (RLU). To investigate the effect of over-expression of exon 5 (+ or −) or KTS (+ or −) isoforms of WT1 on Prm1-directed gene expression, HEL cells were co-transfected with either pGL3b:Prm1 or pGL3b:Prm1D (1.5 μg) plus 200 ng of pRL-TK along with either pcDNA3:WT1 (+/+), pcDNA3:WT1 (+/−), pcDNA3:WT1 (−/+), pcDNA3:WT1 (−/−) (0.5 μg), or as a control, pcDNA3 (0.5 μg). […] The plasmid pCMV5-NAB1, containing the entire coding sequence for NAB1, was generously donated by Dr. Gerald Thiel, University of Saarland Medical Center, Homburg, Germany, and has been described previously (Thiel et al., 2000). To investigate the effect of over-expression of NAB1 on the PMA-mediated induction of Prm1-directed gene expression, HEL cells were transiently co-transfected with pGL3b:Prm1 (2 μg) plus pRL-TK (200 ng) along with either pCMV5 (control) or pCMV:NAB1 (1 μg).

[2] = tested on: TPα mRNA; test: RT-PCR and Southern blot analysis of TPα mRNA expression in HEL cells; conditions: PMA 100 nM, 2 to 48 h
Protocol: Total RNA was isolated from HEL 92.1.7 cells (5×10^6 approximately) using TRIzol reagent (Invitrogen Life Technologies). RT-PCR was carried out with DNase 1-treated total RNA using oligonucleotide primers to specifically amplify TPα and glyceraldehyde-3-phosphate dehydrogenase (GAPDH) mRNA sequences, as previously described (Miggin et al., 1998). The following primers were used: […]
Following agarose gel electrophoresis, PCR products were transferred to Biodyne® B positively-charged nylon membrane (PaII) using standard methodology (Sambrook et al., 1989). Southern blot analysis of the RT-PCR products was carried out using oligonucleotide probes (5′ end-labelled with biotin) specific for TPα (Kin 583: 5′[Btn][…] GAAG3′, SEQ ID NO:80) and GAPDH (Kin 584: 5′[Btn][…]3′, SEQ ID NO:81] mRNA sequences and detection was carried out using the Detector™ HRP Chemiluminescent Blotting Kit (KPL), as described by the manufacturer.

[3] = tested on: Egr1; test: Immunoblot analysis of Egr1 expression in HEL cells; conditions: PMA 100 nM, 0-48 h
Protocol: The expression of WT1, Sp1, Egr1, NF-E2, GATA-1 and Ets-1 proteins in HEL cells was confirmed by western blot analysis. Briefly, whole cell protein was resolved by SDS-PAGE (10% acrylamide gels) and transferred to polyvinylidene difluoride (PVDF) membrane according to standard methodology. […] For PMA studies, HEL cells were pre-incubated for the indicated amount of time with 100 nM PMA, with 10 μM PD98059, with 100 nM PMA plus 10 μM PD98059 or, as a control, with vehicle [0.1% (v/v) DMSO]. Whole cell protein (60 μg per lane) was resolved by SDS-PAGE (10% acrylamide gels) and transferred to polyvinylidene difluoride (PVDF) membrane according to standard methodology.

[4] = tested on: WT1; test: Confocal microscopy of WT1 localization in PMA-treated HEL cells; conditions: PMA 100 nM, at 5 h and 8 h
Protocol: HEL 92.1.7 cells were seeded at ˜1×10^5 cells/ml in 2 ml normal growth media (RPMI 1640, 10% FBS) in 6-well plates containing Poly-L-lysine coated coverslips. Cells were grown at 37° C. for 24 h prior to incubating cells with 100 nM PMA for 0, 1, 5, 8, 16 and 24 h. Thereafter, cells were fixed in 3.4% paraformaldehyde and permeabilized with 0.2% Triton X-100 for 10 min on ice, after which cells were immunolabelled with anti-WT1 (1:1000 of 2 μg/μl stock) and AlexaFluor488 conjugated anti-rabbit, followed by counterstaining with DAPI (1 μg/ml in H2O). Images were obtained using Carl Zeiss Lazer Scanning System LSM510 and Zeiss LSM Imaging software for acquiring multi-channel images with filters appropriate for enhanced DAPI & AlexaFluor488.

CCCCCCCCCCCCCC(=O)O[C@@H]1[C@@H](C)[C@@]2(O)[C@@H](C=C(CO)C[C@]3(O)C(=O)C(C)=C[C@@H]23)[C@@H]2C(C)(C)[C@]12OC(C)=O [PMA, phorbol 12-myristate 13-acetate]
Time of incubation to significantly increased Prm1-directed luciferase activity ([1]; PMA 100 nM, 0-48 h): ≤ 4 h | Increase in Prm1-directed luciferase expression ([1]; PMA 100 nM, 16 h, vs vehicle): 4 fold and 4.3 fold | Effect on luciferase expression directed by the Prm1K sub-fragment ([1]; PMA alone 100 nM, 16 h): neither PMA alone (p=0.4721) nor PMA plus PD98059 (p=0.2693) had any significant effect | TPα mRNA expression [2]: time-dependent, sustained increase in TPα mRNA expression | Egr1 protein expression [3]: significant increase in Egr1 expression from 1 to 16 h | Intracellular localization of WT1 [4]: redistribution of WT1 to the cytosolic fraction
